Read-outs that look alike come from different tables or passages of the source.
Legend:
in vitro [1] = assay: in vitro; set-up: MTT viability assay, undifferentiated SH-SY5Y cells; conditions: human, undifferentiated sh-sy5y cells, read-out: SH-SY5Y IC50
Method: (§1) The cytotoxic profile of 5–7 was carried through the use of the MTT (3-(4,5-dimethylthiazol-2-yl)-2,5-diphenyltetrazolium bromide) assay on human neuroblastoma (SH-SY5Y) and hepatocellular carcinoma (HepG2) cell lines, following established protocols. The cytotoxicity was assessed on SH-SY5Y cells in undifferentiated and in differentiated form. The data obtained from the measurements on the undifferentiated SH-SY5Y and HepG2 cells are summarized in Table 1 for 5c-d, 7c and 7g, as well as for the reference compounds amiridine hydrochloride and THA. Additional data can be found in Supplementary Information (Table S2 and Fig. S1). The both cell lines were cultured according to ECACC recommended conditions and seeded into 96-well plates in 100 µL and density of 8000 per well. For evaluation of cytotoxicity of the differentiated form the SH-SY5Y cells also underwent 9-day differentiation protocol into mature neurons according to Riegerová et al .. The tested compounds were dissolved in DMSO (Sigma Aldrich) or in phosphate buffer saline (PBS, Sigma Aldrich) and subsequently in the growth medium - high glucose Dulbecco’s Modified Eagle’s medium (DMEM; Sigma-Aldrich, D6429). […] Then, the differentiated SH-SY5Y cells were treated with concentrations corresponding to IC50 values obtained from the cytotoxicity measurement using undifferentiated SH-SY5Y cells. Cells were exposed to a tested compound for 24 h. Then the medium was replaced by a medium containing 10 μM of MTT and cells were allowed to produce formazan for another approximately 3 h under surveillance. Thereafter, medium was aspirated and purple crystals of MTT formazan were dissolved in 100 μL DMSO under shaking. Cell viability was assessed spectrophotometrically by the amount of formazan produced. Absorbance was measured at 570 nm with 650 nm reference wavelength on Spark (Tecan Group Ltd, Switzerland). The IC50 value was then calculated from the control-subtracted triplicates using non-linear regression (four parameters) of GraphPad Prism 9 software. Final IC50 and SEM values were obtained as a mean of three independent measurements.

in vitro [2] = assay: in vitro; set-up: PAMPA blood-brain barrier permeability, effective permeability Pe; conditions: PAMPA-BBB Pe
Source text: page 5 / Table S2. Cytotoxicity profiles of 5–7 on SH-SY5Y cell line and predictions to BBB penetration by PAMPA results. / Pe (10^-6 cm.s^-1)

[3] = molecular target: T1, hAChE (human recombinant acetylcholinesterase) (Homo sapiens, UniProt P22303); assay: biochemical; set-up: modified Ellman assay, cholinesterase activity, absorbance at 412 nm
T1 construct: gene ACHE; recombinant enzyme, purchased from Sigma-Aldrich
Method: (§2) The inhibitory activities of 5–7 and all the reference compounds were determined using modified Ellman’s method against human recombinant AChE (hAChE, E.C. 3.1.1.7, purchased from Sigma-Aldrich, Prague, Czech Republic) and human plasmatic BChE (hBChE, E.C. 3.1.1.8, purchased from Sigma-Aldrich, Prague, Czech Republic). The results are expressed as IC50 (the concentration of the compound that is required to reduce 50% of cholinesterase activity). Other used compounds – phosphate buffer solution (PBS, pH = 7.4), 5,5’-dithio-bis(2-nitrobenzoic) acid (Ellman’s reagent, DTNB), acetylthiocholine (ATCh) and butyrylthiocholine (BTCh) were also commercially available and were purchased from Sigma-Aldrich (Prague, Czech Republic). During the measurement, 96-well microplates from polystyrene (ThermoFisher Scientific, Waltham, MA, USA) were used. The solutions of corresponding enzyme in PBS were prepared up to final activity 0.002 U/µL. The assay medium (100 µL) consisted of cholinesterase (10 µL), DTNB (20 µL of 0.01 M solution) and PBS (40 µL of 0.1 M solution). The solutions of the tested compounds (10 µL of different concentrations) were pre- incubated for 5 minutes in the assay medium and then solution of substrate (20 µL of 0.01 M ATCh or BTCh iodide solution) was added to initiate the reaction. The increase of absorbance was measured at 412 nm using Multimode microplate reader Synergy 2 (BioTek Inc., Winooski, VT, USA). For the calculation of the resulting measured activity (the percentage of inhibition I) following formula was used: [drawing 1] where ΔAi indicates absorbance change provided by adequate enzyme exposed to corresponding inhibitor and ΔA0 indicates absorbance change when a solution of PBS was added instead of a solution of inhibitor. Software Microsoft Excel (Redmont, WA, USA) and GraphPad Prism version 5.02 for Windows (GraphPad Software, San Diego, CA, USA) were used for the statistical data evaluation. ChEs are enzymes responsible for the hydrolysis and metabolism of various endogenous and exogenous substrates, that are broadly studied in association with disease conditions like myasthenia gravis or AD. The primary attention in the development of AD drugs has been paid to AChE inhibitors. Nevertheless, there is growing interest in nonselective or BChE-selective inhibitors due to the compensatory role of BChE when AChE levels are depleted during the progression of AD [23]. Selective BChE inhibitors may be beneficial for patients in moderate-to-severe stages of AD [23, 24]. […] Accordingly, we assessed the inhibition activities of these novel compounds against human recombinant AChE (hAChE) and human serum BChE (hBChE) following a modified spectrophotometric protocol developed by Ellman et al.. […] Complete data are available in the Supplementary Information (Table S1), including the inhibition percentages for all derivatives. Amiridine hydrochloride (amiridine.HCl) and tacrine (THA) were used as reference compounds. […] Only a superficial structure-activity relationship for AChE inhibition can be drawn from the obtained data. […] The presence of any substituent on the benzothiazole core enhanced anti-AChE activity, with the best-tolerated position for the substituent being 6 for derivatives with halogen atoms (7b-d with bromine or 7g-h with [compound left out]. h

[4] = molecular target: T2, hBChE (human serum / plasmatic butyrylcholinesterase) (Homo sapiens, UniProt P06276); assay: biochemical; set-up: modified Ellman assay, cholinesterase activity, absorbance at 412 nm
T2 construct: gene BCHE; native enzyme from human plasma/serum, purchased from Sigma-Aldrich
Method: as §2

in vitro [5] = assay: in vitro; set-up: MTT viability assay, HepG2 cells; conditions: human, hepg2 cells; read-out: HepG2 IC50
Method: as §1

[6] = molecular target: T3, recombinant human GluN1/GluN2B NMDA receptor (GluN1-4a/GluN2B) (Homo sapiens, UniProt Q05586+Q13224); assay: whole-cell patch clamp, HEK293; type: cell-based; conditions: -60 mV, 1 mM L-glutamate, 100 µM glycine, pH 7.3, steady state; voltage-dependent
T3 construct: gene GRIN1; GluN1-4a and GluN2B co-expressed with GFP in HEK293 cells
Source text: whole-cell patch clamp, HEK293 on recombinant human GluN1/GluN2B NMDA receptor (GluN1-4a/GluN2B)

T3 sequence (Q13224 27-1484, other chains not shown): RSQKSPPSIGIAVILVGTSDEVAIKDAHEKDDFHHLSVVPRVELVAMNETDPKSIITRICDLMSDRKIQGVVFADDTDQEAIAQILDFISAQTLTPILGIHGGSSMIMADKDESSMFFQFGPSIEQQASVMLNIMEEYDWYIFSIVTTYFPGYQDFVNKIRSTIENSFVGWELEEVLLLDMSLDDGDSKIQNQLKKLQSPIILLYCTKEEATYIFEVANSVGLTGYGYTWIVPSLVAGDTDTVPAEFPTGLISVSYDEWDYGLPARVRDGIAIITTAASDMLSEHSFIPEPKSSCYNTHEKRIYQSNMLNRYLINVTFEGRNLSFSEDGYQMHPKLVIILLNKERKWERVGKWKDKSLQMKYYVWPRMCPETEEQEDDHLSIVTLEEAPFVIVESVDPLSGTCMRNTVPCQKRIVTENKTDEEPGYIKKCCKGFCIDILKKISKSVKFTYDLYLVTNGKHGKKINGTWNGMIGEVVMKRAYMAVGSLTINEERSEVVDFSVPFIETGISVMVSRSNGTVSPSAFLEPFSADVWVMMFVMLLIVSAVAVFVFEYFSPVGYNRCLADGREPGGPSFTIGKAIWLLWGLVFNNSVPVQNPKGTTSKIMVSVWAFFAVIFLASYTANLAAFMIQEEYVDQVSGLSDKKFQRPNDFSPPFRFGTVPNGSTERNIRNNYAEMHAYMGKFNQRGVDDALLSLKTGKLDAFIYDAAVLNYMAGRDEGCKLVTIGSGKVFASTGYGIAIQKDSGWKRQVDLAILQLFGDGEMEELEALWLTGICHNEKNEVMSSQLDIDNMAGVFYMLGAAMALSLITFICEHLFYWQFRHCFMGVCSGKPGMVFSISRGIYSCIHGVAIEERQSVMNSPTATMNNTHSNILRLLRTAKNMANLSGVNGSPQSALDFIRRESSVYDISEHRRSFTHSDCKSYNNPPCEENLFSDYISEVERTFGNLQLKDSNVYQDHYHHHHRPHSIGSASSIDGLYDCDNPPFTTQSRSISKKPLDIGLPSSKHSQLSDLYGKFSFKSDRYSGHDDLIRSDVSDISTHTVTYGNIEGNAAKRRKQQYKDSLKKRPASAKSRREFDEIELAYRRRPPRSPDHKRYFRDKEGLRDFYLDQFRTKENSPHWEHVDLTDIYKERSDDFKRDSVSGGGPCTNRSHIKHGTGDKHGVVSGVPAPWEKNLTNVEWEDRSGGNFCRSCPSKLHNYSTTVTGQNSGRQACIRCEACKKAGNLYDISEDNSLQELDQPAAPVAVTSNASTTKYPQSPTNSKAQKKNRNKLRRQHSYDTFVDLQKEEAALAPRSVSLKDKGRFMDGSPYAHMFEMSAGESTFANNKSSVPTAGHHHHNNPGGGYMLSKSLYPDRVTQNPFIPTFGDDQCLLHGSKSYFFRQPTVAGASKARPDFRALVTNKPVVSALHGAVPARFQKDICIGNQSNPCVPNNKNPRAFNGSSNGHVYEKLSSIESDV
T2 sequence (P06276 29-602): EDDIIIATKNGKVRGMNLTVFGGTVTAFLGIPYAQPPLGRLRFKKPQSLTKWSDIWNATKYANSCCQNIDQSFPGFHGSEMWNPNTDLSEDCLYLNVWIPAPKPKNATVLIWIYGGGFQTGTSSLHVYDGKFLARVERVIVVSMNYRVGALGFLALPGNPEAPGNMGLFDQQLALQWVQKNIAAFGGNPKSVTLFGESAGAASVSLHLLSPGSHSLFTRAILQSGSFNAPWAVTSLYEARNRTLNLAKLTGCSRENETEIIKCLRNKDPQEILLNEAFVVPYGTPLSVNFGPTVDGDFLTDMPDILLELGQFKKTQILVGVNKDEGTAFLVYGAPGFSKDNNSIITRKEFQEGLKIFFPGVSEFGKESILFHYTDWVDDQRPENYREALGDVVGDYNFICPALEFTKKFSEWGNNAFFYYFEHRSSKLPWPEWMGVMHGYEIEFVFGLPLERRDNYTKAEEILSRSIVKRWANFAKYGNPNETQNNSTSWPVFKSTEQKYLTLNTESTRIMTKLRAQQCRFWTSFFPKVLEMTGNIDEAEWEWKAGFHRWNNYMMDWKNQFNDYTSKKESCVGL
T1 sequence (P22303 32-614): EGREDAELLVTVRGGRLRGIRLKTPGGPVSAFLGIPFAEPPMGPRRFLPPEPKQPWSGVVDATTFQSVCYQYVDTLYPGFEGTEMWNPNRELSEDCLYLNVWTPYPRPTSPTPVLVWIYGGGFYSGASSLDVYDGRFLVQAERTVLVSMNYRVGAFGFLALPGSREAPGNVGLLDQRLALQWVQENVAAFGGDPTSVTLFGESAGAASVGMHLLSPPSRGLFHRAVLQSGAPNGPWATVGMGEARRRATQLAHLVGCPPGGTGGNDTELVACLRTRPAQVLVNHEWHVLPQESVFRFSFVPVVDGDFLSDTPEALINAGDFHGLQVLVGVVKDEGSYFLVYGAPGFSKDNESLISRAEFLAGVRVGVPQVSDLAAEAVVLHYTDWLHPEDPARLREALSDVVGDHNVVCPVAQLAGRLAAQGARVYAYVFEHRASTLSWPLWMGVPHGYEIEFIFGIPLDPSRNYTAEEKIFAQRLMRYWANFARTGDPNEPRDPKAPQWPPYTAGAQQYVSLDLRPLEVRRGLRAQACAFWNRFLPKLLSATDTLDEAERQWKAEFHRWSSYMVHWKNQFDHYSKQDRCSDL

SMILES: O=C(CNc1nc2ccc(OC(F)(F)F)cc2s1)Nc1c2c(nc3c1CCC3)CCCC2 [7m, N-{1H,2H,3H,5H,6H,7H,8H-cyclopenta[b]quinolin-9-yl}-2-{[6-(trifluoromethoxy)-1,3-benzothiazol-2-yl]amino}acetamide]
- CC50 at 24 h (in vitro [1]): 29.5 ± 2.3 µM
- Papp (in vitro [2]): 2.54 ± 0.42 ×10⁻⁶ cm/s
- inhibition at 1 µM [3]: 13.3 ± 0.71%
- inhibition at 1 µM [4]: 1.5 ± 0.64%
- CC50 at 24 h (in vitro [5]): ≥ 200 µM
- RI (% inhibition at 30 μM) [6]: 63.0 ± 2.6%

Source: paper doi:10.1101/2024.02.15.580468v1, “Morphing Cholinesterase Inhibitor Amiridine into Multipotent Drugs for the Treatment of Alzheimer’s Disease” (biorxiv, 2024)
